Measured values reported in patent publication US7763601B2, “Prevention and treatment of obesity” (N-Gene Research Laboratories, Inc., priority 2006, dated 2010).

Assays:
[1] = system: female Wistar rats; assay: Body weight gain induced by olanzapine in rats, 28 days; assay type: in vivo, rat; settings: for Body weight (average in the group): day 28, control 255 g
Protocol: Groups of female Wistar rats were treated with vehicle (control group) and the agents to be tested for 28 days. Each group consisted of 6 animals fed with normal laboratory chow and tap water ad libitum. The agents to be tested were administered twice daily, at 8 h and 18 h, perorally. The antipsychotic olanzapine was administered in a dose of 1 mg/kg to induce body weight gain.

[2] = system: female NMRI mice; assay: Body weight gain induced by olanzapine or clozapine in mice, 15 days; assay type: in vivo, mouse; settings: agent alone p.o. for 15 days (olanzapine 0.5, clozapine 1, BGP-15 10 mg/kg); between first and 15th day; control 2.98 g
Protocol: Groups of female NMRI mice were treated with vehicle (control group) and the agents to be tested for 15 days, perorally. Each group consisted of 10 animals fed with normal laboratory chow and tap water ad libitum. Treatments were performed between 5 and 6 pm, shortly before the dark phase, the primary feeding period of the day. Olanzapine was administered in a dose of 0.5 mg/kg, while clozapine was administered in a dose of 1 mg/kg to induce body weight gain.

[3] = system: female Wistar rats; assay: Body weight gain induced by risperidone in rats, 21 days; assay type: in vivo, rat; settings: for Body weight gain: day 21, control 27 g
Protocol: The experiments were carried out in eight-week-old female Wistar rats. Each test group consisted of 10 animals fed with normal laboratory chow and tap water ad libitum. The animals were treated with vehicle (control group) and the compounds to be tested for 21 days. In this experimental system, the antipsychotic risperidone was injected subcutaneously once daily in doses of 0.005 and 0.05 mg/kg, respectively to induce body weight gain.

[4] = agent alone, p.o. twice daily for 28 days (olanzapine 1, BGP-15 10, metformin 100, rosiglitazone 3 mg/kg), starting weight 171 g
[5] = agent together with olanzapine 1 mg/kg, p.o. twice daily for 28 days (BGP-15 10, metformin 100, rosiglitazone 3 mg/kg), olanzapine alone 330 g

SMILES	effect on average weight relative to the control group ([1]; agent alone, 28 days)	Body weight (average in the group) [1, 4] [g]	Body weight (average in the group) [1, 5] [g]	Body weight gain (average in the group) [2] [g]	other results
CN(C)C(=N)N=C(N)N [Metformin, metformin]	somewhat higher average weight relative to the control group	266	331	–	effect on the weight gain induced by olanzapine ([1]; agent together with olanzapine 1 mg/kg, 28 days): did not reduce
CN1CCN(C2=Nc3cc(Cl)ccc3Nc3ccccc32)CC1 [Clozapine, 8-chloro-11-(4-methyl-1-piperazinyl)-5H-dibenzo[b,e][1,4]diazepine]	–	–	–	4.11	–
Cc1nc2n(c(=O)c1CCN1CCC(c3noc4cc(F)ccc34)CC1)CCCC2 [Risperidone, risperidone]	–	–	–	–	effect on body weight gain relative to the control group ([3]; agent alone, 21 days): increased body weight gain relative to the control group; Body weight gain ([3]; risperidone alone 0.005 mg/kg s.c. once daily): 39.7 g; Body weight gain ([3]; risperidone alone 0.05 mg/kg s.c. once daily): 41 g
CN(CCOc1ccc(CC2SC(=O)NC2=O)cc1)c1ccccn1 (stereo not shown) [Rosiglitazone, rosiglitazone]	–	284	359	–	–
Cc1cc2c(s1)Nc1ccccc1N=C2N1CCN(C)CC1 [Olanzapine, 2-methyl-4-(4-methyl-1-piperazinyl)-10H-thieno[2,3-b][1,5]-benzodiazepine]	high average weight relative to the control group	330	–	3.5	–
